In assay [1] the target is T1, Recombinant human JAK1 catalytic domain (Homo sapiens, UniProt P23458).
T1 construct: Recombinant human JAK1 (catalytic domain, amino acids 866-1154; catalog number PV4774); purchased Invitrogen PV4774
As to the kind of experiment: JAK1 inhibition assay (polyGT substrate / Ulight-JAK1 peptide assay). The class given is biochemical. As to conditions: Comparative Compounds (Table VI). The protocol:
Recombinant human JAK1 catalytic domain (amino acids 850-1154; catalog number 08-144) was purchased from Carna Biosciences. 10 ng of JAK1 is incubated with 12.5 μg polyGT substrate (Sigma catalog number P0275) in kinase reaction buffer (15 mM Tris-HCl pH 7.5, 1 mM DTT, 0.01% Tween-20, 10 mM MgCl2, 2 μM non-radioactive ATP, 0.25 ρCi ^33P-gamma-ATP (GE Healthcare, catalog number AH9968) final concentrations) with or without 5 μL containing test compound or vehicle (DMSO, 1% final concentration), in a total volume of 25 μL, in a polypropylene 96-well plate (Greiner, V-bottom). After 45 min at 30° C., reactions are stopped by adding of 25 μL/well of 150 mM phosphoric acid. All of the terminated kinase reaction is transferred to prewashed (75 mM phosphoric acid) 96 well filter plates (Perkin Elmer catalog number 6005177) using a cell harvester (Perkin Elmer). Plates are washed 6 times with 300 μL per well of a 75 mM phosphoric acid solution and the bottom of the plates is sealed. 40 μL/well of Microscint-20 is added, the top of the plates is sealed and readout is performed using the Topcount (Perkin Elmer). Kinase activity is calculated by subtracting counts per min (cpm) obtained in the presence of a positive control inhibitor (10 μM staurosporine) from cpm obtained in the presence of vehicle. The ability of a test compound to inhibit this activity is determined as:
(§1) [formula] • RFU test compound=RFU determined for sample with test compound present • RFU control=RFU determined for sample with positive control inhibitor • RFU vehicle=RFU determined in the presence of vehicle
Dose dilution series are prepared for the compounds enabling the testing of dose-response effects in the JAK1 assay and the calculation of the IC50 for each compound. Each compound is routinely tested at concentration of 20 μM followed by a 1/3 serial dilution, 8 points (20 μM-6.67 μM-2.22 μM-740 nM-247 nM-82 nM-27 nM-9 nM) in a final concentration of 1% DMSO. When potency of compound series increased, more dilutions are prepared and/or the top concentration was lowered (e.g. 5 μM, 1 μM).
Recombinant human JAK1 (catalytic domain, amino acids 866-1154; catalog number PV4774) was purchased from Invitrogen. 1 ng of JAK1 was incubated with 20 nM Ulight-JAK1 (tyr1023) peptide (Perkin Elmer catalog number TRF0121) in kinase reaction buffer (25 mM MOPS pH6.8, 0.01% Brij-35, 5 mM MgCl2, 2 mM DTT, 7 μM ATP) with or without 4 μL containing test compound or vehicle (DMSO, 1% final concentration), in a total volume of 20 μL, in a white 384 Opti plate (Perkin Elmer, catalog number 6007290). After 60 min at room temperature, reactions were stopped by adding 20 μL/well of detection mixture (1× detection buffer (Perkin Elmer, catalog number CR97-100C), 0.5 nM Europium-anti-phosphotyrosine (PT66) (Perkin Elmer, catalog number AD0068), 10 mM EDTA). Readout is performed using the Envision with excitation at 320 nm and measuring emission at 615 nm (Perkin Elmer). Kinase activity was calculated by subtracting relative fluorescence units (RFU) obtained in the presence of a positive control inhibitor (10 μM staurosporine) from RFU obtained in the presence of vehicle. The ability of a test compound to inhibit this activity was determined as: Percentage inhibition=((RFU determined for sample with test compound present−RFU determined for sample with positive control inhibitor) divided by (RFU determined in the presence of vehicle−RFU determined for sample with positive control inhibitor))*100.
Dose dilution series were prepared for the compounds enabling the testing of dose-response effects in the JAK1 assay and the calculation of the IC50 for the compound. Each compound is routinely tested at concentration of 20 μM followed by a 1/5 serial dilution, 10 points in a final concentration of 1% DMSO. When potency of compound series increases, more dilutions are prepared and/or the top concentration are lowered (e.g. 5 μM, 1 μM). […]

The target in assay [2] is T2, Recombinant human JAK2 catalytic domain (Homo sapiens, UniProt O60674).
T2 construct: Recombinant human JAK2 catalytic domain (amino acids 808-1132; catalog number PV4210); GST; purchased Invitrogen PV4210
As to the kind of experiment: JAK2 inhibition assay (polyGT substrate / Ulight-JAK1 peptide assay). As to conditions: Comparative Compounds (Table VIII). The assay is classed as biochemical. The protocol: Recombinant human JAK2 catalytic domain (amino acids 808-1132; catalog number PV4210) was purchased from Invitrogen. 0.025 mU of JAK2 is incubated with […] polyGT substrate (Sigma catalog number P0275) in kinase reaction buffer (5 mM MOPS pH 7.5, 9 mM MgAc, 0.3 mM EDTA, 0.06% Brij and 0.6 mM DTT, 1 μM non-radioactive ATP, 0.25 μCi ^33P-gamma-ATP (GE Healthcare, catalog number AH9968) final concentrations) with or without 5 μL containing test compound or vehicle (DMSO, 1% final concentration), in a total volume of 25 μL, in a polypropylene 96-well plate (Greiner, V-bottom). After 90 min at 30° C., reactions are stopped by adding of 25 μL/well of 150 mM phosphoric acid. All of the terminated kinase reaction is transferred to prewashed (75 mM phosphoric acid) 96 well filter plates (Perkin Elmer catalog number 6005177) using a cell harvester (Perkin Elmer). Plates are washed 6 times with 300 μL per well of a 75 mM phosphoric acid solution and the bottom of the plates is sealed. 40 μL/well of Microscint-20 is added, the top of the plates is sealed and readout is performed using the Topcount (Perkin Elmer). Kinase activity is calculated by subtracting counts per min (cpm) obtained in the presence of a positive control inhibitor (10 μM staurosporine) from cpm obtained in the presence of vehicle. The ability of a test compound to inhibit this activity is determined as:
as §1
Dose dilution series are prepared for the compounds enabling the testing of dose-response effects in the JAK2 assay and the calculation of the IC50 for each compound. Each compound is routinely tested at concentration of 20 μM followed by a 1/3 serial dilution, 8 points (20 μM-6.67 μM-2.22 μM-740 nM-247 nM-82 nM-27 nM-9 nM) in a final concentration of 1% DMSO. When potency of compound series increased, more dilutions are prepared and/or the top concentration is lowered (e.g. 5 μM, 1 μM).
Recombinant human JAK2 (catalytic domain, amino acids 866-1154; catalog number PV4210) was purchased from Invitrogen. 0.0125 mU of JAK2 was incubated with 25 nM Ulight-JAK1 (tyr1023) peptide (Perkin Elmer catalog number TRF0121) in kinase reaction buffer (25 mM HEPES pH7.0, 0.01% Triton X-100, 7.5 mM MgCl2, 2 mM DTT, 7.5 μM ATP) with or without 4 μL containing test compound or vehicle (DMSO, 1% final concentration), in a total volume of 20 μL, in a white 384 Opti plate (Perkin Elmer, catalog number 6007290). After 60 min at room temperature, reactions were stopped by adding 20 μL/well of detection mixture (1× detection buffer (Perkin Elmer, catalog number CR97-100C), 0.5 nM Europium-anti-phosphotyrosine (PT66) (Perkin Elmer, catalog number AD0068), 10 mM EDTA). Readout is performed using the Envision with excitation at 320 nm and measuring emission at 615 nm (Perkin Elmer). Kinase activity was calculated by subtracting relative fluorescence units (RFU) obtained in the presence of a positive control inhibitor (10 μM staurosporine) from RFU obtained in the presence of vehicle. The ability of a test compound to inhibit this activity was determined as: Percentage inhibition=((RFU determined for sample with test compound present−RFU determined for sample with positive control inhibitor) divided by (RFU determined in the presence of vehicle−RFU determined for sample with positive control inhibitor))*100.
Dose dilution series are prepared for compound enabling the testing of dose-response effects in the JAK2 assay and the calculation of the IC50 for the compound. Each compound is routinely tested at concentration of 20 μM followed by a 1/5 serial dilution, 10 points in a final concentration of 1% DMSO. When potency of compound series increases, more dilutions are prepared and/or the top concentration are lowered (e.g. 5 μM, 1 μM). […]

From US10179771B2 (GALAPAGOS NV, priority 2014, dated 2019) come the findings set out here.

pIC50: −log10 of the molar value.

T2 sequence (O60674 808-1132): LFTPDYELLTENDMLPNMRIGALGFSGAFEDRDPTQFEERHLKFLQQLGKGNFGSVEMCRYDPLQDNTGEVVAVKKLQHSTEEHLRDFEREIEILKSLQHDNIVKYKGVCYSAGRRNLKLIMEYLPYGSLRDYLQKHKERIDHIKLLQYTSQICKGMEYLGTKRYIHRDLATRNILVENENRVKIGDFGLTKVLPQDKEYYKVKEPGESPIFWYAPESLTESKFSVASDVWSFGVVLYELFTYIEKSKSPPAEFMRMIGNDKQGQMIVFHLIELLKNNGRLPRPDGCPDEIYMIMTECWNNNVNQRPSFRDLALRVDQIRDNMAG
T1 sequence (P23458 866-1154): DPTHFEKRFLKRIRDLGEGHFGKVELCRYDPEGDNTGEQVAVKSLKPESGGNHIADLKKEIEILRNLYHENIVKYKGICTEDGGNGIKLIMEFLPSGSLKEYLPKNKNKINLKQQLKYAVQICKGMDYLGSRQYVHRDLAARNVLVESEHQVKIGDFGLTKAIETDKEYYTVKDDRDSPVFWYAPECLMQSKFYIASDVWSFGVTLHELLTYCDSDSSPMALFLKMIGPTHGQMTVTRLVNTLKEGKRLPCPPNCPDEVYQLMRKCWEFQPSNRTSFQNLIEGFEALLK

Usually pIC50 stands for −log10 of the IC50, conventionally taken in molar units. Take `Cn1cnc2ccc(Nc3ccc(CC#N)cc3)cc21` [A, 2-[4-[(3-methylbenzimidazol-5-yl)amino]phenyl]acetonitrile, reference compound]: the pIC50 in assay [1] and in assay [2] was under 6.30 in each case.
On to `Cn1cnc2ccc(Nc3ccc4c(c3)OCCO4)cc21` [B, reference compound], for which the pIC50 in assay [1] and in assay [2] was under 6.30 each time.
